# Reference: PMC10300102, “In vivo inhibition of nuclear ACE2 translocation protects against SARS-CoV-2 replication and lung damage through epigenetic imprinting” (Nature Communications, 2023)
# Where a SMILES comes first, the peptide text is derived from it. The star is where a group is joined. Myristoyl = CCCCCCCCCCCCCC(=O)*
# Key:
# Mouse tolerance studies = type: in vivo, C57BL/6 J mice; design: Mouse organ weight - i.v. treatment, Brain / Mouse organ weight - i.v. treatment, Heart / Mouse organ weight - i.v. treatment, Kidney / Mouse organ weight - i.v. treatment, Liver / Mouse organ weight - i.v. treatment, Lungs / Mouse organ weight - i.v. treatment, Spleen: unit not given here; conditions: for Mouse organ weight - i.v. treatment, Brain / Mouse organ weight - i.v. treatment, Heart / Mouse organ weight - i.v. treatment, Kidney / Mouse organ weight - i.v. treatment, Liver / Mouse organ weight - i.v. treatment, Lungs / Mouse organ weight - i.v. treatment, Spleen: S 1f, mean, N 5
# Protocol: For NACE2i intraperitoneal (i.p.) studies, female C57BL/6 J mice (6-8 weeks, 3 per group) were treated with a single bolus dose of NACE2i at 3, 10, 30, or 100 mg/kg intraperitoneally for seven days. For NACE2i intravenous (i.v.) studies, male C57BL/6 J mice (6–8 weeks, 5 per group) were treated with daily bolus doses of either sodium chloride 0.9% vehicle or NACE2i at 3, 10, or 30 mg/kg intravenously for six days. For ACE2i studies, male C57BL/6 J mice (6 weeks, 5 per group) were treated with daily bolus doses of either saline vehicle or ACE2i at 10, 30, or 100 mg/kg intravenously or at 3, 10, and 30 mg/kg intranasally (i.n.) for six days. All treatments were administered on day 1, and all mice were observed and weighed daily prior to being euthanized for organ examination. All mice were purchased from the Animal Resources Centre (Canning Vale, Western Australia, Australia) and studies were carried out by Agilex Biolabs (St Lucia, Queensland, Australia). Animals were maintained in housing rooms under controlled environmental conditions: individually ventilated cages (IVCs) with a 12/12 light/dark cycle. The ambient temperature is set to 20–25 °C and relative humidity at 30-70% rH. The University of Queensland Animal Ethics Committee assessed and approved all studies (project code 2021/AE000659).
# [1] = tested on: SARS-CoV-2-induced lung pathology; design: species or system golden Syrian hamsters; conditions: hamster, in vivo
# H3K27ac = tested on: H3K27ac; design: species or system golden Syrian hamsters; conditions: hamster, in vivo
# [2] = i.p. single bolus 10 mg/kg, n=3
# [3] = i.p. single bolus 30 mg/kg, n=3
# [4] = i.p. single bolus 100 mg/kg, n=3
# [5] = i.v. daily for 6 days 3 mg/kg, n=5
# [6] = i.v. daily for 6 days 10 mg/kg, n=5
# [7] = i.v. daily for 6 days 30 mg/kg, n=5
structure (smiles),measurement,setting,value
CCCCCCCCCCCCCC(=O)N[C@H](C(=O)NCC(=O)N[C@H](C(=O)N[C@@H](CCCNC(=N)N)C(=O)N[C@@H](CC(=O)O)C(=O)N[C@@H](CCCNC(=N)N)C(=O)N[C@@H](CCCCN)C(=O)N[C@@H](CCCCN)C(=O)N[C@@H](CCCCN)C(=O)N[C@@H](CC(N)=O)C(=O)N[C@@H](CCCCN)C(=O)N[C@@H](C)C(=O)N[C@@H](CCCNC(=N)N)C(=O)N[C@@H](CO)C(=O)O)[C@@H](C)CC)[C@@H](C)O [NACE2i] (Myristoyl-TGIRDRKKKNKARS-OH),Diarrhoea - Mild (number of animals),"Mouse tolerance studies; IP route, 3 mg/kg, n = 3",0
same,No abnormalities (number of animals),"Mouse tolerance studies; IP route, 3 mg/kg, n = 3",3
same,Palpebral Closure - Mild (number of animals),"Mouse tolerance studies; IP route, 3 mg/kg, n = 3",0
same,Piloerection - Mild (number of animals),"Mouse tolerance studies; IP route, 3 mg/kg, n = 3",0
same,Reduced Activity - Mild (number of animals),"Mouse tolerance studies; IP route, 3 mg/kg, n = 3",0
same,Reduced Activity - Moderate (number of animals),"Mouse tolerance studies; IP route, 3 mg/kg, n = 3",0
same,Right limb raised - Mild (number of animals),"Mouse tolerance studies; IP route, 3 mg/kg, n = 3",0
same,Diarrhoea - Mild (number of animals),"Mouse tolerance studies; IP route, 10 mg/kg, n = 3",0
same,No abnormalities (number of animals),"Mouse tolerance studies; IP route, 10 mg/kg, n = 3",3
same,Palpebral Closure - Mild (number of animals),"Mouse tolerance studies; IP route, 10 mg/kg, n = 3",0
same,Piloerection - Mild (number of animals),"Mouse tolerance studies; IP route, 10 mg/kg, n = 3",0
same,Reduced Activity - Mild (number of animals),"Mouse tolerance studies; IP route, 10 mg/kg, n = 3",0
same,Reduced Activity - Moderate (number of animals),"Mouse tolerance studies; IP route, 10 mg/kg, n = 3",0
same,Right limb raised - Mild (number of animals),"Mouse tolerance studies; IP route, 10 mg/kg, n = 3",0
same,Diarrhoea - Mild (number of animals),"Mouse tolerance studies; IP route, 30 mg/kg, n = 3",0
same,No abnormalities (number of animals),"Mouse tolerance studies; IP route, 30 mg/kg, n = 3",0
same,Palpebral Closure - Mild (number of animals),"Mouse tolerance studies; IP route, 30 mg/kg, n = 3",1
same,Piloerection - Mild (number of animals),"Mouse tolerance studies; IP route, 30 mg/kg, n = 3",0
same,Reduced Activity - Mild (number of animals),"Mouse tolerance studies; IP route, 30 mg/kg, n = 3",3
same,Reduced Activity - Moderate (number of animals),"Mouse tolerance studies; IP route, 30 mg/kg, n = 3",0
same,Right limb raised - Mild (number of animals),"Mouse tolerance studies; IP route, 30 mg/kg, n = 3",3
same,Diarrhoea - Mild (number of animals),"Mouse tolerance studies; IP route, 100 mg/kg, n = 3",1
same,No abnormalities (number of animals),"Mouse tolerance studies; IP route, 100 mg/kg, n = 3",0
same,Palpebral Closure - Mild (number of animals),"Mouse tolerance studies; IP route, 100 mg/kg, n = 3",0
same,Piloerection - Mild (number of animals),"Mouse tolerance studies; IP route, 100 mg/kg, n = 3",2
same,Reduced Activity - Mild (number of animals),"Mouse tolerance studies; IP route, 100 mg/kg, n = 3",2
same,Reduced Activity - Moderate (number of animals),"Mouse tolerance studies; IP route, 100 mg/kg, n = 3",2
same,Right limb raised - Mild (number of animals),"Mouse tolerance studies; IP route, 100 mg/kg, n = 3",0
same,Hunched Posture - Mild (number of animals),"Mouse tolerance studies; IV route, 3 mg/kg, n = 5",0
same,No abnormalities (number of animals),"Mouse tolerance studies; IV route, 3 mg/kg, n = 5",5
same,Palpebral Closure - Mild (number of animals),"Mouse tolerance studies; IV route, 3 mg/kg, n = 5",0
same,Piloerection - Mild (number of animals),"Mouse tolerance studies; IV route, 3 mg/kg, n = 5",0
same,Reduced Activity - Mild (number of animals),"Mouse tolerance studies; IV route, 3 mg/kg, n = 5",0
same,Reduced Activity - Moderate (number of animals),"Mouse tolerance studies; IV route, 3 mg/kg, n = 5",0
same,Tremors - Mild (number of animals),"Mouse tolerance studies; IV route, 3 mg/kg, n = 5",0
same,Hunched Posture - Mild (number of animals),"Mouse tolerance studies; IV route, 10 mg/kg, n = 5",0
same,No abnormalities (number of animals),"Mouse tolerance studies; IV route, 10 mg/kg, n = 5",5
same,Palpebral Closure - Mild (number of animals),"Mouse tolerance studies; IV route, 10 mg/kg, n = 5",0
same,Piloerection - Mild (number of animals),"Mouse tolerance studies; IV route, 10 mg/kg, n = 5",0
same,Reduced Activity - Mild (number of animals),"Mouse tolerance studies; IV route, 10 mg/kg, n = 5",0
same,Reduced Activity - Moderate (number of animals),"Mouse tolerance studies; IV route, 10 mg/kg, n = 5",0
same,Tremors - Mild (number of animals),"Mouse tolerance studies; IV route, 10 mg/kg, n = 5",0
same,Hunched Posture - Mild (number of animals),"Mouse tolerance studies; IV route, 30 mg/kg, n = 5",1
same,No abnormalities (number of animals),"Mouse tolerance studies; IV route, 30 mg/kg, n = 5",0
same,Palpebral Closure - Mild (number of animals),"Mouse tolerance studies; IV route, 30 mg/kg, n = 5",1
same,Piloerection - Mild (number of animals),"Mouse tolerance studies; IV route, 30 mg/kg, n = 5",0
same,Reduced Activity - Mild (number of animals),"Mouse tolerance studies; IV route, 30 mg/kg, n = 5",4
same,Reduced Activity - Moderate (number of animals),"Mouse tolerance studies; IV route, 30 mg/kg, n = 5",5
same,Tremors - Mild (number of animals),"Mouse tolerance studies; IV route, 30 mg/kg, n = 5",5
same,"Mouse organ weight - i.v. treatment, Brain",Mouse tolerance studies; i.v. 3 mg/kg,452.46
same,"Mouse organ weight - i.v. treatment, Heart",Mouse tolerance studies; i.v. 3 mg/kg,113.88
same,"Mouse organ weight - i.v. treatment, Kidney",Mouse tolerance studies; i.v. 3 mg/kg,265.49
same,"Mouse organ weight - i.v. treatment, Liver",Mouse tolerance studies; i.v. 3 mg/kg,1316.2
same,"Mouse organ weight - i.v. treatment, Lungs",Mouse tolerance studies; i.v. 3 mg/kg,151.37
same,"Mouse organ weight - i.v. treatment, Spleen",Mouse tolerance studies; i.v. 3 mg/kg,70.61
same,"Mouse organ weight - i.v. treatment, Brain",Mouse tolerance studies; i.v. 10 mg/kg,451.76
same,"Mouse organ weight - i.v. treatment, Heart",Mouse tolerance studies; i.v. 10 mg/kg,110.14
same,"Mouse organ weight - i.v. treatment, Kidney",Mouse tolerance studies; i.v. 10 mg/kg,258.06
same,"Mouse organ weight - i.v. treatment, Liver",Mouse tolerance studies; i.v. 10 mg/kg,1432.4
same,"Mouse organ weight - i.v. treatment, Lungs",Mouse tolerance studies; i.v. 10 mg/kg,140.86
same,"Mouse organ weight - i.v. treatment, Spleen",Mouse tolerance studies; i.v. 10 mg/kg,79.75
same,"Mouse organ weight - i.v. treatment, Brain",Mouse tolerance studies; i.v. 30 mg/kg,422.35
same,"Mouse organ weight - i.v. treatment, Heart",Mouse tolerance studies; i.v. 30 mg/kg,102.55
same,"Mouse organ weight - i.v. treatment, Kidney",Mouse tolerance studies; i.v. 30 mg/kg,221.42
same,"Mouse organ weight - i.v. treatment, Liver",Mouse tolerance studies; i.v. 30 mg/kg,1090.2
same,"Mouse organ weight - i.v. treatment, Lungs",Mouse tolerance studies; i.v. 30 mg/kg,130.37
same,"Mouse organ weight - i.v. treatment, Spleen",Mouse tolerance studies; i.v. 30 mg/kg,68.35
same,body weight,"Mouse tolerance studies; female C57BL/6 J mice, single i.p. bolus up to 100 mg/kg, seven days",without significant changes in body weight
same,"Diarrhoea, mild (number of mice)","Mouse tolerance studies; i.p. single bolus 3 mg/kg, n=3",0
same,No abnormalities (number of mice),"Mouse tolerance studies; i.p. single bolus 3 mg/kg, n=3",3
same,"Palpebral closure, mild (number of mice)","Mouse tolerance studies; i.p. single bolus 3 mg/kg, n=3",0
same,"Piloerection, mild (number of mice)","Mouse tolerance studies; i.p. single bolus 3 mg/kg, n=3",0
same,"Reduced activity, mild (number of mice)","Mouse tolerance studies; i.p. single bolus 3 mg/kg, n=3",0
same,"Reduced activity, moderate (number of mice)","Mouse tolerance studies; i.p. single bolus 3 mg/kg, n=3",0
same,"Right limb raised, mild (number of mice)","Mouse tolerance studies; i.p. single bolus 3 mg/kg, n=3",0
same,"Diarrhoea, mild (number of mice)",Mouse tolerance studies; [2],0
same,No abnormalities (number of mice),Mouse tolerance studies; [2],3
same,"Palpebral closure, mild (number of mice)",Mouse tolerance studies; [2],0
same,"Piloerection, mild (number of mice)",Mouse tolerance studies; [2],0
same,"Reduced activity, mild (number of mice)",Mouse tolerance studies; [2],0
same,"Reduced activity, moderate (number of mice)",Mouse tolerance studies; [2],0
same,"Right limb raised, mild (number of mice)",Mouse tolerance studies; [2],0
same,"Diarrhoea, mild (number of mice)",Mouse tolerance studies; [3],0
same,No abnormalities (number of mice),Mouse tolerance studies; [3],0
same,"Palpebral closure, mild (number of mice)",Mouse tolerance studies; [3],1
same,"Piloerection, mild (number of mice)",Mouse tolerance studies; [3],0
same,"Reduced activity, mild (number of mice)",Mouse tolerance studies; [3],3
same,"Reduced activity, moderate (number of mice)",Mouse tolerance studies; [3],0
same,"Right limb raised, mild (number of mice)",Mouse tolerance studies; [3],3
same,"Diarrhoea, mild (number of mice)",Mouse tolerance studies; [4],1
same,No abnormalities (number of mice),Mouse tolerance studies; [4],0
same,"Palpebral closure, mild (number of mice)",Mouse tolerance studies; [4],0
same,"Piloerection, mild (number of mice)",Mouse tolerance studies; [4],2
same,"Reduced activity, mild (number of mice)",Mouse tolerance studies; [4],2
same,"Reduced activity, moderate (number of mice)",Mouse tolerance studies; [4],2
same,"Right limb raised, mild (number of mice)",Mouse tolerance studies; [4],0
same,"Hunched posture, mild (number of mice)",Mouse tolerance studies; [5],0
same,No abnormalities (number of mice),Mouse tolerance studies; [5],5
same,"Palpebral closure, mild (number of mice)",Mouse tolerance studies; [5],0
same,"Piloerection, mild (number of mice)",Mouse tolerance studies; [5],0
same,"Reduced activity, mild (number of mice)",Mouse tolerance studies; [5],0
same,"Reduced activity, moderate (number of mice)",Mouse tolerance studies; [5],0
same,"Tremors, mild (number of mice)",Mouse tolerance studies; [5],0
same,"Hunched posture, mild (number of mice)",Mouse tolerance studies; [6],0
same,No abnormalities (number of mice),Mouse tolerance studies; [6],5
same,"Palpebral closure, mild (number of mice)",Mouse tolerance studies; [6],0
same,"Piloerection, mild (number of mice)",Mouse tolerance studies; [6],0
same,"Reduced activity, mild (number of mice)",Mouse tolerance studies; [6],0
same,"Reduced activity, moderate (number of mice)",Mouse tolerance studies; [6],0
same,"Hunched posture, mild (number of mice)",Mouse tolerance studies; [7],1
same,No abnormalities (number of mice),Mouse tolerance studies; [7],0
same,"Palpebral closure, mild (number of mice)",Mouse tolerance studies; [7],1
same,"Piloerection, mild (number of mice)",Mouse tolerance studies; [7],0
same,"Reduced activity, mild (number of mice)",Mouse tolerance studies; [7],4
same,"Reduced activity, moderate (number of mice)",Mouse tolerance studies; [7],5
same,"Tremors, mild (number of mice)",Mouse tolerance studies; [7],5
same,body or organ weight,"Mouse tolerance studies; male C57BL/6 J mice, daily i.v. bolus up to 30 mg/kg for six days",without significant changes in body or organ weight
same,lung histopathological changes,[1],"minimal alveolar, bronchiolar, or vascular changes"
same,mean cumulative histopathological scores versus vehicle,[1],substantially lower
same,Bronchitis/bronchiolitis,[1]; ip,0
same,Interstital inflammation,[1]; ip,0
same,Vasculitis,[1]; ip,0
same,H3K27ac along with ACE2me in lung tissues,H3K27ac,significant H3K27ac induction
